Several values for one entry are separate records, joined by “and”; a condition that tells them apart may be missing. Identical values can stand only once.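 Five compound concentrations were applied to cells in 96-well plates for 48 hours; endpoints were derived by simple linear interpolation of the resulting dose-response curve. Abbreviation: GI50, concentration required for 50% inhibition of growth. TGI: concentration producing complete growth inhibition.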
Legend:
Assay in all cases: NCI-60 cell line screen, 48 h
T-47D breast = system: T-47D breast
IGROV1 ovarian = system: IGROV1 ovarian
ACHN renal = system: ACHN renal
NCI-H460 lung = system: NCI-H460 lung
A549 NSCLC = system: A549 NSCLC
UACC-62 melanoma = system: UACC-62 melanoma
SR leukemia = system: SR leukemia
SN12C renal = system: SN12C renal
SNB-19 CNS = system: SNB-19 CNS
CCRF-CEM leukemia = system: CCRF-CEM leukemia

SMILES	GI50 (T-47D breast)	TGI (T-47D breast)	GI50 (IGROV1 ovarian)	TGI (IGROV1 ovarian)	GI50 (ACHN renal)	TGI (ACHN renal)	GI50 (NCI-H460 lung)	TGI (NCI-H460 lung)	GI50 (A549 NSCLC)	TGI (A549 NSCLC)	GI50 (UACC-62 melanoma)	TGI (UACC-62 melanoma)	GI50 (SR leukemia)	TGI (SR leukemia)	GI50 (SN12C renal)	TGI (SN12C renal)	GI50 (SNB-19 CNS)	TGI (SNB-19 CNS)	GI50 (CCRF-CEM leukemia)	TGI (CCRF-CEM leukemia)
Cn1cc(-c2ccc3nc(-c4ccc(CC(=O)Nc5cc(C(C)(C)C)no5)cc4)cnc3c2)cn1	0.0827 µM	> 3 µM	0.013 µM	> 1.21 µM	0.0144 µM	> 3 µM	0.0289 µM	> 3 µM	0.0577 µM	> 3 µM	0.0297 µM	> 3 µM	< 0.0445 µM	> 3 µM	0.0268 µM	> 3 µM	> 1.48 µM	> 3 µM	0.692 µM	> 3 µM
O=C(/C=C\c1ccc(O)c(O)c1)c1ccccc1O	5.57 µM	45.5 µM	0.711 µM	23.8 µM	8.31 µM	24 µM	15.1 µM	49.8 µM	17.1 µM	> 100 µM	12.1 µM	26.1 µM	3.17 µM	69.8 µM	11.8 µM	37.5 µM	17.4 µM	91.8 µM	0.645 µM	> 100 µM
COc1ccc(C2=NN(C(N)=S)C(c3ccc4c(c3)OCO4)C2)cc1 (centres undefined)	3.22 µM	41 µM	2.42 µM	6.8 µM	3.58 µM	> 100 µM	2.6 µM	6.83 µM	3.19 µM	> 100 µM	3.79 µM	21.1 µM	3.08 µM	11.8 µM	3.37 µM	> 100 µM	3.13 µM	22.8 µM	2.5 µM	8.18 µM
C[C@@H]1CN2[C@H]3[C@@H]1CC[C@]31CCC(=O)O[C@]1(C)[C@H]1CC[C@H]3CCC=C3[C@@H]12	> 30 µM	> 30 µM	> 30 µM	> 30 µM	> 30 µM	> 30 µM	> 30 µM	> 30 µM	> 30 µM	> 30 µM	> 30 µM	> 30 µM	> 30 µM	> 30 µM	> 30 µM	> 30 µM	> 30 µM	> 30 µM	> 30 µM	> 30 µM
CS(=O)(=O)OCCN(CCOS(C)(=O)=O)c1ccc(C=Nc2ccc(-c3csc(COc4ccccc4)n3)cc2)cc1	–	> 51.8 µM	–	32.8 µM	–	2.32 µM	–	2.1 µM	–	32.1 µM	–	19.8 µM	–	15.5 µM	–	18.7 µM	–	32.6 µM	–	35.6 µM
CCCCn1c(=O)[nH]c(N)c([C@@H]2c3c([nH]c(=O)n(CCCC)c3=O)Oc3ccc4ccccc4c32)c1=O	10.7 µM	37.6 µM	1.89 µM	4.78 µM	1.8 µM	3.59 µM	2.19 µM	5.05 µM	11.5 µM	24.5 µM	1.67 µM	3.36 µM	0.458 µM	15.8 µM	2.51 µM	6.94 µM	1.72 µM	3.36 µM	0.326 µM	1.38 µM
O=C1C=C(Nc2ccccc2)c2ccccc2C1=O	3.17 µM	9.88 µM	2.78 µM	7.31 µM	2.56 µM	7.88 µM	2.44 µM	6.47 µM	1.84 µM	4.06 µM	1.65 µM	3.12 µM	3.22 µM	12.4 µM	1.62 µM	3.11 µM	2.2 µM	6.73 µM	3.54 µM	14.7 µM
N#CCCNc1nonc1-c1nc2ccccc2n1CC(=O)c1ccc(N)cc1	29 µM	> 100 µM	0.0356 µM	> 100 µM	0.0362 µM	> 100 µM	0.0317 µM	> 32.9 µM	0.0345 µM	> 100 µM	< 0.0154 µM	> 100 µM	< 0.0135 µM	> 100 µM	0.0447 µM	> 100 µM	–	> 100 µM	0.029 µM	> 100 µM
O=c1[nH]c2ccccc2n1C1CCNCC1	> 100 µM	> 100 µM	> 100 µM	> 100 µM	> 100 µM	> 100 µM	> 100 µM	> 100 µM	> 100 µM	> 100 µM	> 100 µM	> 100 µM	> 100 µM	> 100 µM	> 100 µM	> 100 µM	> 100 µM	> 100 µM	> 100 µM	> 100 µM
COc1cc(/C=C/C(=O)c2cccc(-n3cc(-c4ccccc4)[nH]c3=O)c2)cc(OC)c1OC	2.19 µM	6.9 µM	2 µM	4.7 µM	1.6 µM	3.21 µM	1.4 µM	2.69 µM	4.03 µM	> 100 µM	1.52 µM	2.98 µM	0.565 µM	> 100 µM	2.09 µM	10.7 µM	2.35 µM	5.69 µM	0.64 µM	> 100 µM
O=P1(NCCCl)OCCCN1CCCl (centres undefined)	–	> 500 µM	–	457 µM	–	> 500 µM	–	448 µM	–	434 µM	–	419 µM	–	> 500 µM	–	437 µM	–	418 µM	–	400 µM
Cc1ccc(NC(=O)c2ccc(CN3CCN(C)CC3)cc2)cc1Nc1nc(-c2cccnc2)cs1	4.89 µM and 1.87 µM	22 µM and 7.06 µM	15 µM and 7.66 µM	35.6 µM and > 10 µM	11.7 µM and 4.15 µM	24.7 µM and > 10 µM	7.33 µM and 5.34 µM	22.5 µM and > 10 µM	12.1 µM and 8.01 µM	27.1 µM and > 10 µM	15 µM and 8.56 µM	30.4 µM and > 10 µM	2.72 µM and 1.91 µM	18.6 µM and 4.67 µM	13.9 µM and > 10 µM	36 µM and > 10 µM	14.4 µM and 6.37 µM	29.7 µM and > 10 µM	4.14 µM and 4.81 µM	28.1 µM and > 10 µM

Source: PubChem BioAssay (NCI)
